# Entries after “also recorded” stand apart in the source; their conditions may differ. Where two headings read alike, the source gives them in different places. Where no end group is shown, it is not given here.
# Columns and labels:
# GST-tagged FnbB = assay: Pull-down with GST-tagged FnbB, proteins from rabbit reticulocyte translation system; type: binding, S. aureus; conditions: cell-free protein translation system; GST alone as negative control
# Source text: Recombinant proteins were produced from the isolated plasmids from the PPI-partners in a rabbit reticulocyte-based translation system and additionally in E. coli cells. The produced recombinant proteins were used for pull-down and immunoprecipitation experiments.
# His-tagged ClfB protein [1] = molecular target: T1, His-tagged ClfB protein (Staphylococcus aureus, UniProt Q99R07); conditions: 5 μg spotted onto membrane, His-tag antibody detection
# T1 sequence (Q99R07 45-841): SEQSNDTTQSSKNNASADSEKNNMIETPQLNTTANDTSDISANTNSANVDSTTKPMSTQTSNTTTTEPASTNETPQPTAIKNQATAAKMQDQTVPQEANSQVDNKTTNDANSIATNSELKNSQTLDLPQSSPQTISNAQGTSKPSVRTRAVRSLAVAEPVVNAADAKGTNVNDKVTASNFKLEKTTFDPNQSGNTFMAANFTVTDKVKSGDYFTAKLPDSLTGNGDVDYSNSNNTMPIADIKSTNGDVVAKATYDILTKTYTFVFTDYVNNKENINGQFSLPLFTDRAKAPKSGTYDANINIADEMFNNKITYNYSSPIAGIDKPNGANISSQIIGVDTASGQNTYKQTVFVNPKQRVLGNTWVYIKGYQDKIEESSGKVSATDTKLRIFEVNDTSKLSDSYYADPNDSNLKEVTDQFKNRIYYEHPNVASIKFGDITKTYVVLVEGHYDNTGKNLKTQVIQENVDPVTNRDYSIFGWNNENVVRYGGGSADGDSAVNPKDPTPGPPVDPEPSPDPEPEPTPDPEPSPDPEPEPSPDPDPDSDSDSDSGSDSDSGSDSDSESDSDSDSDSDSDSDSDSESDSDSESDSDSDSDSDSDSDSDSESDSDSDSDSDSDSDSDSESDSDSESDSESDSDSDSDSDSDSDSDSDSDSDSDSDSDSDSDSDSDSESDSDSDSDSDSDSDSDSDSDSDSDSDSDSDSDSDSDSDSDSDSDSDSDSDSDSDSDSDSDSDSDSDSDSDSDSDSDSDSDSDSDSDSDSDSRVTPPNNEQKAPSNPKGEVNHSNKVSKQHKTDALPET
# Method: 7.1. […] This peptide was also synthesized.
# Peptides were spotted onto a protein binding membrane and incubated with recombinant His-tagged ClfB protein. The irreversibly bound peptides can be targeted by additionally added ClfB. Bound ClfB protein is detected by a His-tag specific antibody (see FIG. 7).
# ClfB [2] = molecular target: T2, ClfB (Staphylococcus aureus, UniProt Q99R07); type: cell-based, S. aureus; design: expressed in transfected cells; host or cells: yeast Y2H reporter strain AH109; conditions: among 100 clones after two rounds of selection against ClfB
# T2 sequence (Q99R07 45-841): as above
# ClfB [3] = molecular target: T2, ClfB; conditions: Y2H-strain AH109, prey plasmid pGADT7
# Method: All constituents of this mini-library are tested directly in a binary manner against ClfB. • The identified interactions between ClfB and KRT6A, KRT8, and KRT5 (cf Table 1) were used for the experiment. • The interacting KRT-genes were compared in order to identify the plasmid harbouring the shortest KRT gene-fragment from the initial Y2H-screen. […] The clone with the smallest ClfB interacting DNA-insert is called clone clb10.1 • Clone clb10.1 was used as template for primer-design. PCR-primers were designed to lead to N-terminal truncations of the resulting protein. The clb10.1 DNA-template contains a 330 base pair DNA-fragment of the gene coding region of KRT8 (corresponds to a peptide of 110 amino acids). • The first primer-pair binds 45 bp downstream of the clb10.1 DNA-template resulting in a 45 by shortened DNA-fragment after PCR (the generated PCR-product contains a gene coding sequence of 285 bp). The resulting peptide encoded from this DNA is 95 amino acids. The PCR-product was cloned into an empty Y2H-prey plasmid, pGADT7. The plasmid was sequenced and the clone was named Frag1. • The second primer pair amplifies a PCR-product, which contains a gene coding sequence of 144 bp, which corresponds to a peptide of 48 amino acids. The PCR-product was cloned into an empty Y2H-prey plasmid, pGADT7. The plasmid was sequenced and the clone was named Frag2. • The third primer pair still amplifies the same gene coding sequence of KRT8, however the 3-primed untranslated region was removed. The 3-primed untranslated region is 241 bp long and not relevant for the interaction with ClfB protein. The removal of this 241 region was achieved by using a PCR-reverse primer, which binds upstream of this region in the DNA-template of clone 10.1. The resulting peptide, when translated from this PCR-product is still 48 amino acids. The PCR-product was cloned into an empty Y2H-prey plasmid, pGADT7. The plasmid was sequenced and the clone was named Frag2-CDS. • The fourth primer pair amplifies a PCR-product of 84 bp, which when translated into a protein will correspond to a peptide of 28 amino acids. The PCR-product was cloned into an empty Y2H-prey plasmid, pGADT7. The plasmid was sequenced and the clone was named Frag2-binding domain. • The fifth primer pair amplifies a PCR-product of 78 bp; when translated into a protein this fragment will correspond to a peptide of 26 amino acids. The PCR-product was cloned into an empty Y2H-prey plasmid, pGADT7. The plasmid was sequenced and the clone was named Frag3. • After PCR, the fragments were separated by gel-electrophoresis and the DNA was extracted from the gels by a commercial gel-extraction kit. The DNA was cut by restriction enzymes and cloned into the Y2H-plasmid pGADT7. The cloning reaction was introduced by plasmid transformation into E. coli. The transformation mixture was plated out onto plasmid-selective media containing the appropriate antibiotic. Growing colonies were inoculated into liquid media containing the same antibiotic, and the E. coli liquid culture was plasmid-purified and sequenced for confirmation. • Pure plasmid DNA from all constructs (Frag1, Frag2, Frag2-CDS, Frag2-binding domain, Frag3, clb10.1 clone, as well as full-length KRT6A, full-length KRT8, and full-length KRT5) were mixed to obtain a mini-library of different shortened fragments from the same interactor of ClfB.
# [4] = molecular target: binding of GST-tagged keratin fragment to ClfB-protein (Staphylococcus aureus, UniProt Q99R07); conditions: 1 μM peptide; densitometry, ImageJ
# binding of GST-tagged keratin fragment to ClfB-protein, sequence (Q99R07 45-841): as above
# Source text: 7.2. […] Relative changes in pulled-down GST-tagged keratin fragment is quantified by densitometry using a flatbed scanner and the ImageJ software, provided by Wayne Rasband, National Institutes of Health. (ImageJ: http://rsb.info.nih.gov/ij/) See FIGS. 8 and 9
# living S. aureus cells = assay: Adhesion assay with living S. aureus cells, crystal violet, absorbance at 595 nm; type: cell-based; conditions: 1 μg coated onto microwell-plates
# Method: • All genes coding for the used recombinant proteins were cloned into the plasmid pDEST15. […] This protein served as negative control 1 • Affinity purified, recombinantly in E. coli produced GST-tagged Frag2-CDS (49 ng/μl). the amino acid sequence of Frag2-CDS is N-[…]-C (SEQ ID NO: 71) • Affinity purified, recombinantly in E. coli produced GST-tagged S. aureus protein, methionine sulfoxide reductase msrB, NCBI protein GI:54041496, was diluted to a final concentration of 30 ng/μl. This protein served as negative control 2 • Affinity purified, recombinantly in E. coli produced GST-tagged S. aureus protein, NADPH-dependent 7-cyano-7-deazaguanine reductase, NCBI protein GI:81781951, was diluted to a final concentration of 61 ng/μl. This protein served as negative control 3 • Human aortic elastin protein, 1 mg elastin was purchased from the company Elastin Products company, product number HA587 and solubilized in 1 ml H2O to get the final concentration of 1 μg/μl. This protein served as positive control 1 because elastin protein is known to bind to S. aureus. • Human fibrinogen protein was purchased from the company Enzyme Research Laboratories, product number FIB 1 3120L; […] was solubilized in 50 ml H2O to get the final concentration of 2 μg/μl. […]
# [5] = molecular target: T3, Frag2-binding domain peptide (Homo sapiens, UniProt P05787); assay: Y2H test of peptide binding to the same peptide (homodimerization, stickiness); type: cell-based; conditions: Y2H-strain AH109
# T3 construct: expressed in transfected cells; host or cells: yeast Y2H reporter strain AH109
# T3 sequence (P05787 437-464 limits assumed): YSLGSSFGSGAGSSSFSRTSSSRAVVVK
# [6] = molecular target: T4, activation domain of yeast protein GAL4 (Saccharomyces cerevisiae, UniProt P04386); assay: Y2H specificity test against activation domain of GAL4; type: cell-based; conditions: Y2H-strain AH109
# T4 construct: expressed in transfected cells; host or cells: yeast Y2H reporter strain AH109
# T4 sequence (P04386 768-881): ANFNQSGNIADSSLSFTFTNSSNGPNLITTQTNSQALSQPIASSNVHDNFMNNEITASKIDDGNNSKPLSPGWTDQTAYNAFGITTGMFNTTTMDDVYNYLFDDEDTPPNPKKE
# [7] = molecular target: T5, binding domain of yeast protein GAL4 (Saccharomyces cerevisiae, UniProt P04386); assay: Y2H specificity test against binding domain of GAL4; type: cell-based; conditions: Y2H-strain AH109
# T5 construct: expressed in transfected cells; host or cells: yeast Y2H reporter strain AH109
# T5 sequence (P04386 11-38): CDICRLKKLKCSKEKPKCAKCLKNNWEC
# BSA = BSA (Bos taurus, UniProt P02769); assay: In vitro pull-down with BSA coated beads; type: binding; conditions: detection with anti-GST antibodies; listed as GST-tagged peptide of 48-amino acids
# Source text: (§1) 6.2.1. Recombinant Protein Production • The DNA-sequence coding for ClfB was cloned into a plasmid PET160 (a plasmid suitable for recombinant protein expression in E. coli and HIS-tag purification). The plasmid harbours a so-called HIS-tag, which is a DNA sequence coding for a stretch of six histidine residues. […]
# (§2) 6.2.2. […] The GST-tagged peptide was purified by using a commercial GST-tag purification kit. • After several washing steps the remaining proteins are eluted from the magnetic beads • The eluted protein/peptide mixture is loaded on a SDS-page gel, separated, transferred onto a membrane, and probed with GST-tag specific antibodies and bound antibodies are detected by chemiluminescence signals on chemiluminescence films. • The following combinations of recombinant proteins/peptides were used in the pull-downs: • a) BSA+GST-tagged 48-aminoacid long peptide • b) His-tagged ClfB+GST-tagged 48-amino acid-peptide • c) Purified GST+GST-tagged 48-amino acid-peptide
# GST = molecular target: T6, GST (Schistosoma japonicum, UniProt P08515); assay: In vitro pull-down with GST coated beads; type: binding; conditions: detection with anti-GST antibodies; listed as GST-tagged peptide of 48-amino acids
# T6 construct: purchased
# T6 sequence (P08515 whole entry): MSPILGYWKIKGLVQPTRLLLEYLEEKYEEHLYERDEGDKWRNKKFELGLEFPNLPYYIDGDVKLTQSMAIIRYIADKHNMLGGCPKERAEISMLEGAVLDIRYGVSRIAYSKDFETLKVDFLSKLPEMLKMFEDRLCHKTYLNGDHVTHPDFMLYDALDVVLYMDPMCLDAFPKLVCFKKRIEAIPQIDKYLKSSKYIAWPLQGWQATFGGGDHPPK
# Source text: as §1, §2
# His-tagged ClfB protein [8] = molecular target: T1, His-tagged ClfB protein; conditions: detection with anti-GST antibodies; listed as GST-tagged Keratin 8 protein fragment
# Source text: as §1, §2
# ClfB [9] = molecular target: T2, ClfB; conditions: for Relative interaction strength to ClfB compared to the original binder: X-Gal overlay assays and growth strength on 3AT media, AH109 cells; for More beta galactosidase in comparison to the original binder: X-Gal overlay, equal numbers of cells
substance,measurement,setting,value
"CCT—beta: human protein interacting with FnbB, NCBI Protein GI 2559012",Co-purified with GST-tagged FnbB,GST-tagged FnbB,could be co-purified
"EQRGELAIKDANAKLSELEAAL [control peptide, reference compound]",Binding of recombinant ClfB to spotted peptide,His-tagged ClfB protein [1],no binding was detected
QELMNVKLALDIEIATYRKLLEGEESRLESGMQNMSIHTKTTSGYAGGLSSAYGGLTSPGLSYSLGSSFGSGAGSSSFSRTSSSRAVVVKKIETRDGKLVSESSDVLPK [Clone 10.1],Identified X-times by sequencing,ClfB [2],8
same,Interaction capable with ClfB in the Y2H-system,ClfB [3],Yes
RAVVVKKIETRDGKLVSESSDVLPK [Frag 3],Identified X-times by sequencing,ClfB [2],0
same,Identified X-times by sequencing,ClfB [2]; listed as Frag3,No single clone
same,Interaction capable with ClfB in the Y2H-system,ClfB [3],No
SYSLGSSFGSGAGSSSFSRTS [IPEP-21SA],Competitive inhibition of binding of GST-tagged keratin fragment to ClfB-protein,[4],~40%
same,Binding of recombinant ClfB to spotted peptide,His-tagged ClfB protein [1],could bind
same,Binding to living pathogen cells,living S. aureus cells,binds strongly
TYRKLLEGEESRLESGMQNMSIHTKTTSGYAGGLSSAYGGLTSPGLSYSLGSSFGSGAGSSSFSRTSSSRAVVVKKIETRDGKLVSESSDVLPK [Frag 1],Identified X-times by sequencing,ClfB [2],12
same,Interaction capable with ClfB in the Y2H-system,ClfB [3],Yes
YSLGSSFGSGAGSSSFSRTSSSRAVVVK [Frag 2-binding domain],Interaction of the peptide with itself,[5],does not interact with itself
same,Interaction with the activation domain of GAL4 protein,[6],neither interacts
same,Identified X-times by sequencing,ClfB [2],18
same,Interaction capable with ClfB in the Y2H-system,ClfB [3],Yes
same,Interaction capable with ClfB in the Y2H-system,ClfB [3]; listed as Frag2-binding domain,still capable of interaction; also recorded: does only interact with ClfB protein
same,Interaction with the binding-domain of GAL4 protein,[7],neither interacts
YSLGSSFGSGAGSSSFSRTSSSRAVVVKKIETRDGKLVSESSDVLPK (also: fused to a dimerising Fc or GST (not shown)) [GST-tagged Frag2-CDS],Pulled down by BSA coated beads,BSA,Neither BSA coated- nor GST coated magnetic beads could pull down; also recorded: neither a) BSA nor c) GST coated beads can pull-down
same,Binding of recombinant ClfB to spotted peptide,His-tagged ClfB protein [1],could bind
same,Binding to living pathogen cells,living S. aureus cells,binds strongly
same,Pulled down by GST coated beads,GST,Neither BSA coated- nor GST coated magnetic beads could pull down; also recorded: neither a) BSA nor c) GST coated beads can pull-down
same,Pulled down (co-purified) with His-tagged ClfB protein,His-tagged ClfB protein [8],could only be pulled down when His-tagged recombinant ClfB was present
YSLGSSFGSGAGSSSFSRTSSSRAVVVKKIETRDGKLVSESSDVLPK [Frag 2-CDS],Identified X-times by sequencing,ClfB [2],28
same,Identified X-times by sequencing,ClfB [2]; listed as Frag2-CDS,28
same,Interaction capable with ClfB in the Y2H-system,ClfB [3],Yes
YSLGSSFGSGAGSSSFSRTSSSRAVVVKKIETRDGKLVSESSDVLPK [Frag 2],Identified X-times by sequencing,ClfB [2],25
same,Interaction capable with ClfB in the Y2H-system,ClfB [3],Yes
YSLGSSFGSGAGSSSLGRTSSSRAVVVK [stronger binder],Relative interaction strength to ClfB compared to the original binder,ClfB [9],binds with increased affinity
same,More beta galactosidase in comparison to the original binder,ClfB [9],at least 50%
YSLGSSFGSGAGSSSSSRTSPSRAVVVK [more stronger binder],Relative interaction strength to ClfB compared to the original binder,ClfB [9],binds with increased strength
same,More beta galactosidase in comparison to the original binder,ClfB [9],≥ 100%
"lysosomal sialidase NEU 1: human protein interacting with FnbB, NCBI Protein GI 30583251",Co-purified with GST-tagged FnbB,GST-tagged FnbB,could be co-purified

# — patent publication US20100216191A1, “Method for Manufacturing a Modified Peptide” (PROCOMCURE BIOTECH GMBH, priority 2007, published 2010)
